Measurements taken from patent US20220128542A1, “TREATMENT EFFICIENCY EVALUATION” (TX MEDIC AB, priority 2019, published 2022).
Marks after values point to notes of the source that are not given here.

System: brain of rats subjected to severe traumatic brain injury (sTBI)
Assay: HPLC of free amino acids and amino group containing compounds in brain after sTBI (Example 1)
Assay type: in vivo, rat
Description: They were divided into three groups:
1) n=6 animals subjected to sTBI, with drug administration after 30 minutes and sacrifice at 2 days post-TBI (Acute phase 1)
2) n=6 animals subjected to sTBI, with drug administration after 30 minutes and sacrifice at 7 days post-TBI (Acute phase 2).
3) n=6 animals subjected to sTBI, with drug administration after 3 days and sacrifice at 7 days post-TBI (Chronic phase).
The drug treatment was a subcutaneous injection of 0.5 ml of LMW-DS (15 mg/kg) and administered according to the aforementioned schematic protocol.
After the wet weight (w.w.) determination, tissue preparation was affected as previously disclosed (Tavazzi et al., Neurosurgery. 2005; 56: 582-589; Vagnozzi et al., Neurosurgery. 2007; 61: 379-388; Tavazzi et al., Neurosurgery. 2007; 61: 390-395; Amorini et al., J Cell Mol Med. 2017; 21: 530-542.). Briefly, whole brain homogenization was performed with 7 ml of ice-cold, nitrogen-saturated, precipitating solution composed by CH3CN+10 mM KH2PO4, pH 7.40, (3:1; v:v), and using an Ultra-Turrax set at 24,000 rpm/min (Janke & Kunkel, Staufen, Germany). After centrifugation at 20,690×g, for 10 min at 4° C., the clear supernatants were saved, pellets were supplemented with 3 ml of the precipitating solution and homogenized again as described above. A second centrifugation was performed (20,690×g, for 10 min at 4° C.), pellets were saved, supernatants combined with those previously obtained, extracted by vigorous agitation with a double volume of HPLC-grade CHCl3 and centrifuged as above. The upper aqueous phases containing water-soluble low-molecular weight compounds were collected, subjected to chloroform washings for two more times (this procedure allowed the removal of all the organic solvent and of any lipid soluble compound from the buffered tissue extracts), adjusted in volumes with 10 mM KH2PO4, pH 7.40, to have ultimately aqueous 10% tissue homogenates and saved at −80° C. until assayed.
The simultaneous determination of primary free amino acids (FAA) and amino group containing compounds (AGCC) (listed below) was performed using the precolumn derivatization of the sample with a mixture of Ortho-phthalaldehyde (OPA) and 3-Mercaptopropionic acid (MPA), as described in detail elsewhere (Amorini et al., J Cell Mol Med. 2017; 21: 530-542; Amorini et al., Mol Cell Biochem. 2012; 359: 205-216). […] The automated precolumn derivatization of the samples (15 μl) with OPA-MPA was carried out at 24° C. and 25 μl of the derivatized mixture were loaded onto the HPLC column (Hypersil C-18, 250×4.6 mm, 5 μm particle size, thermostated at 21° C.) for the subsequent chromatographic separation. In the case of glutamate, deproteinized brain extracts were diluted 20 times with HPLC-grade H2O prior to the derivatization procedure and subsequent injection. Separation of OPA-AA and OPA-AGCC was carried out at a flow rate of 1.2 ml/min using two mobile phases (mobile phase A=24 mmol/l CH3COONa+24 mmol/l Na2HPO4+1% tetrahydrofurane+0.1% trifluoroacetic acid, pH 6.5; mobile phase B=40% CH3OH+30% CH3CN+30% H2O), using an appropriate step gradient (Amorini et al., J Cell Mol Med. 2017; 21: 530-542; Amorini et al., Mol Cell Biochem. 2012; 359: 205-216).
Assignment and calculation of the OPA-AA and OPA-AGCC in chromatographic runs of whole brain extracts were carried out at 338 nm wavelengths by comparing retention times and areas of peaks with those of peaks of chromatographic runs of freshly-prepared ultra-pure standard mixtures with known concentrations. […]

[1] = Acute phase 1: 15 mg/kg s.c. 30 min post-sTBI, sacrifice day 2
[2] = Acute phase 2: 15 mg/kg s.c. 30 min post-sTBI, sacrifice day 7
[3] = Chronic phase: 15 mg/kg s.c. 3 days post-sTBI, sacrifice day 7

sodium salt of dextran sulfate [LMW-DS] was tested. Which “effect on sTBI-induced increase in glutamate (GLU)” value (15 mg/kg s.c. early post-injury (30 min following sTBI)) did it give?
The value was “remarkable inhibition”.

And the “effect on glutamate excitotoxicity marker” value (15 mg/kg s.c. injected at 3 days after sTBI)?
The value was “no efficacy”.

What about the ALA cerebral concentration [1] of the same substance?
Its ALA cerebral concentration is 0.50 ± 0.12^a μmol/g (w.w.).

What about the ARG cerebral concentration [1] of the same substance?
The ARG cerebral concentration was 0.13 ± 0.02^b, d μmol/g (w.w.).

What about the ASN cerebral concentration [1] of the same substance?
Its ASN cerebral concentration is 0.12 ± 0.02^i μmol/g (w.w.).

What about the ASP cerebral concentration [1] of the same substance?
The ASP cerebral concentration was 2.40 ± 0.56^d, i μmol/g (w.w.).

And the CITR cerebral concentration [1]?
Its CITR cerebral concentration is 0.018 ± 0.004 µmol/g (w.w.).

And the GABA cerebral concentration [1]?
Its GABA cerebral concentration is 1.43 ± 0.25^a μmol/g (w.w.).

What about the GLN cerebral concentration [1] of the same substance?
The GLN cerebral concentration was 4.78 ± 1.09^a μmol/g (w.w.).

What about the GLU cerebral concentration [1] of the same substance?
The GLU cerebral concentration was 9.81 ± 1.66^i μmol/g (w.w.).

What about the GLY cerebral concentration [1] of the same substance?
Its GLY cerebral concentration is 0.83 ± 0.25^a, c μmol/g (w.w.).

And the HIS cerebral concentration [1]?
The HIS cerebral concentration was 0.068 ± 0.015^b μmol/g (w.w.).

And the ILE cerebral concentration [1]?
Its ILE cerebral concentration is 0.038 ± 0.007 µmol/g (w.w.).

And the L-Cystat cerebral concentration [1]?
The L-Cystat cerebral concentration was 0,185 ± 0.031^b, c, i μmol/g (w.w.).

What about the LEU cerebral concentration [1] of the same substance?
The LEU cerebral concentration was 0.021 ± 0.005^a, c μmol/g (w.w.).

What about the LYS cerebral concentration [1] of the same substance?
The LYS cerebral concentration was 0.236 ± 0.057^b, d, h μmol/g (w.w.).

And the MET cerebral concentration [1]?
The MET cerebral concentration was 0.016 ± 0.005^d, j μmol/g (w.w.).

What about the ORN cerebral concentration [1] of the same substance?
The ORN cerebral concentration was 0.014 ± 0.007 µmol/g (w.w.).

And the PHE cerebral concentration [1]?
Its PHE cerebral concentration is 0.031 ± 0.011^b, d μmol/g (w.w.).

And the SAH cerebral concentration [1]?
Its SAH cerebral concentration is 0.033 ± 0.008^b, c, j μmol/g (w.w.).

And the SER cerebral concentration [1]?
Its SER cerebral concentration is 0.88 ± 0.25^a μmol/g (w.w.).

What about the TAU cerebral concentration [1] of the same substance?
The TAU cerebral concentration was 4.86 ± 0.85^b μmol/g (w.w.).

What about the THR cerebral concentration [1] of the same substance?
The THR cerebral concentration was 0.92 ± 0.29^a μmol/g (w.w.).

What about the TRP cerebral concentration [1] of the same substance?
The TRP cerebral concentration was 0.030 ± 0.007^b, dg, i μmol/g (w.w.).

What about the TYR cerebral concentration [1] of the same substance?
The TYR cerebral concentration was 0.15 ± 0.03 µmol/g (w.w.).

And the VAL cerebral concentration [1]?
Its VAL cerebral concentration is 0.042 ± 0.011 µmol/g (w.w.).

And the ALA cerebral concentration [2]?
The ALA cerebral concentration was 0.52 ± 0.24^a, e μmol/g (w.w.).

And the ARG cerebral concentration [2]?
Its ARG cerebral concentration is 0.16 ± 0.03 µmol/g (w.w.).

And the ASN cerebral concentration [2]?
Its ASN cerebral concentration is 0.13 ± 0.03^i μmol/g (w.w.).

What about the ASP cerebral concentration [2] of the same substance?
The ASP cerebral concentration was 2.94 ± 0.98^f, j μmol/g (w.w.).

And the CITR cerebral concentration [2]?
Its CITR cerebral concentration is 0.018 ± 0.008 µmol/g (w.w.).

And the GABA cerebral concentration [2]?
Its GABA cerebral concentration is 1.60 ± 0.24^a μmol/g (w.w.).

What about the GLN cerebral concentration [2] of the same substance?
The GLN cerebral concentration was 3.66 ± 0.41 µmol/g (w.w.).

And the GLU cerebral concentration [2]?
The GLU cerebral concentration was 9.93 ± 1.56^e, i μmol/g (w.w.).

And the GLY cerebral concentration [2]?
The GLY cerebral concentration was 0.71 ± 0.16^f, i μmol/g (w.w.).

What about the HIS cerebral concentration [2] of the same substance?
The HIS cerebral concentration was 0.055 ± 0.019 µmol/g (w.w.).

What about the ILE cerebral concentration [2] of the same substance?
Its ILE cerebral concentration is 0.048 ± 0.017^a μmol/g (w.w.).

What about the L-Cystat cerebral concentration [2] of the same substance?
The L-Cystat cerebral concentration was 0.173 ± 0.038^b, f, i μmol/g (w.w.).

And the LEU cerebral concentration [2]?
Its LEU cerebral concentration is 0.018 ± 0.004 µmol/g (w.w.).

What about the LYS cerebral concentration [2] of the same substance?
Its LYS cerebral concentration is 0.32 ± 0.04^a, e, i μmol/g (w.w.).

And the MET cerebral concentration [2]?
The MET cerebral concentration was 0.022 ± 0.006^b, e, i μmol/g (w.w.).

What about the ORN cerebral concentration [2] of the same substance?
Its ORN cerebral concentration is 0.011 ± 0.005 µmol/g (w.w.).

What about the PHE cerebral concentration [2] of the same substance?
The PHE cerebral concentration was 0.028 ± 0.010 µmol/g (w.w.).

And the SAH cerebral concentration [2]?
The SAH cerebral concentration was 0.026 ± 0.010^f, i μmol/g (w.w.).

What about the SER cerebral concentration [2] of the same substance?
Its SER cerebral concentration is 0.71 ± 0.28^b μmol/g (w.w.).

What about the TAU cerebral concentration [2] of the same substance?
The TAU cerebral concentration was 3.80 ± 1.19 µmol/g (w.w.).

And the THR cerebral concentration [2]?
The THR cerebral concentration was 0.66 ± 0.23 µmol/g (w.w.).

What about the TRP cerebral concentration [2] of the same substance?
Its TRP cerebral concentration is 0.015 ± 0.006 µmol/g (w.w.).

What about the TYR cerebral concentration [2] of the same substance?
The TYR cerebral concentration was 0.172 ± 0.046^b, f μmol/g (w.w.).

And the VAL cerebral concentration [2]?
The VAL cerebral concentration was 0.057 ± 0.017 µmol/g (w.w.).

What about the ALA cerebral concentration [3] of the same substance?
Its ALA cerebral concentration is 0.57 ± 0.28^a, e μmol/g (w.w.).

And the ARG cerebral concentration [3]?
Its ARG cerebral concentration is 0.14 ± 0.02 µmol/g (w.w.).

What about the ASN cerebral concentration [3] of the same substance?
The ASN cerebral concentration was 0.18 ± 0.02^a μmol/g (w.w.).

And the ASP cerebral concentration [3]?
The ASP cerebral concentration was 4.46 ± 0.70^a, f μmol/g (w.w.).

What about the CITR cerebral concentration [3] of the same substance?
Its CITR cerebral concentration is 0.020 ± 0.006 µmol/g (w.w.).

What about the GABA cerebral concentration [3] of the same substance?
Its GABA cerebral concentration is 1.85 ± 0.65^a μmol/g (w.w.).

What about the GLN cerebral concentration [3] of the same substance?
Its GLN cerebral concentration is 3.98 ± 0.34 µmol/g (w.w.).

And the GLU cerebral concentration [3]?
The GLU cerebral concentration was 13.58 ± 1.28^a μmol/g (w.w.).

And the GLY cerebral concentration [3]?
Its GLY cerebral concentration is 1.05 ± 0.13^a, f μmol/g (w.w.).

And the HIS cerebral concentration [3]?
The HIS cerebral concentration was 0.047 ± 0.021 µmol/g (w.w.).

And the ILE cerebral concentration [3]?
Its ILE cerebral concentration is 0.041 ± 0.016^b μmol/g (w.w.).

What about the L-Cystat cerebral concentration [3] of the same substance?
Its L-Cystat cerebral concentration is 0.26 ± 0.05^a, f μmol/g (w.w.).

What about the LEU cerebral concentration [3] of the same substance?
The LEU cerebral concentration was 0.024 ± 0.032^b, f μmol/g (w.w.).

And the LYS cerebral concentration [3]?
The LYS cerebral concentration was 0.179 ± 0.036 µmol/g (w.w.).

What about the MET cerebral concentration [3] of the same substance?
Its MET cerebral concentration is 0.009 ± 0.004^b μmol/g (w.w.).

And the ORN cerebral concentration [3]?
Its ORN cerebral concentration is 0.017 ± 0.009^a, e μmol/g (w.w.).

What about the PHE cerebral concentration [3] of the same substance?
Its PHE cerebral concentration is 0.033 ± 0.011^b μmol/g (w.w.).

And the SAH cerebral concentration [3]?
The SAH cerebral concentration was 0.050 ± 0.013^a μmol/g (w.w.).

And the SER cerebral concentration [3]?
Its SER cerebral concentration is 0.93 ± 0.27^a, e μmol/g (w.w.).

And the TAU cerebral concentration [3]?
Its TAU cerebral concentration is 4.49 ± 0.43^a μmol/g (w.w.).

What about the THR cerebral concentration [3] of the same substance?
The THR cerebral concentration was 0.75 ± 0.24^a, e μmol/g (w.w.).

What about the TRP cerebral concentration [3] of the same substance?
Its TRP cerebral concentration is 0.012 ± 0.007 µmol/g (w.w.).

And the TYR cerebral concentration [3]?
Its TYR cerebral concentration is 0.21 ± 0.05^f μmol/g (w.w.).

What about the VAL cerebral concentration [3] of the same substance?
Its VAL cerebral concentration is 0.040 ± 0.016^b μmol/g (w.w.).
